Tests used:
Format in all cases: in vivo
[1] = test system: ducksalad (Heteranthera limosa); test: Test B flooded paddy test; details: for Plant response rating, Flood, Ducksalad: 250 g ai/ha, flooded paddy test, visual rating on 0 to 100 scale (0 no effect, 100 complete control) after 13 to 15 days; for Plant response rating, Ducksalad: Flood (flooded paddy test), 13 to 15 days
Method in brief: (§1)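 Plants were grown to the 2-leaf stage, then pots were flooded to 3 cm above the soil and compounds were applied directly into the paddy water. That depth was held throughout. After 13 to 15 days in a greenhouse, injury was visually rated against controls on a 0–100 scale.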

rice (Oryza sativa) = test: Test B flooded paddy test; details: for Plant response rating, Flood, Rice: 250 g ai/ha, flooded paddy test, visual rating on 0 to 100 scale (0 no effect, 100 complete control) after 13 to 15 days; for Plant response rating, Rice: Flood (flooded paddy test), 13 to 15 days
Method in brief: as §1

[2] = test system: wheat (Triticum aestivum); test: Test A pre-/postemergence plant response
Method in brief: (§2)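 Injury scores (0, no effect; 100, complete control) come from visual comparison with untreated controls roughly ten days post-treatment. Test chemicals in a surfactant-containing non-phytotoxic solvent were applied as a directed soil spray preemergence and to one- to two-leaf seedlings postemergence.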

[3] = test system: barnyardgrass (Echinochloa crus-galli); test: Test A pre-/postemergence plant response
Method in brief: as §2

[4] = test system: giant foxtail (Setaria faberii); test: Test A pre-/postemergence plant response
Method in brief: as §2

corn (Zea mays) = test: Test A pre-/postemergence plant response
Method in brief: as §2

[5] = test system: velvetleaf (Abutilon theophrasti); test: Test A pre-/postemergence plant response
Method in brief: as §2

[6] = test system: morningglory (Ipomoea spp.); test: Test A pre-/postemergence plant response
Method in brief: as §2

[7] = test system: large crabgrass (Digitaria sanguinalis); test: Test A pre-/postemergence plant response
Method in brief: as §2

[8] = test system: pigweed (Amaranthus retroflexus); test: Test A pre-/postemergence plant response
Method in brief: as §2

[9] = test system: windgrass (Apera spica-venti); test: Test B postemergence plant response
Method in brief: (§3)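 Plants at the 1- to 4-leaf stage (2 to 18 cm tall), grown in pots of peat moss/vermiculite medium with wetting agent and starter nutrients, received postemergence applications of test chemicals. After 13 to 15 days in a greenhouse, injury was rated visually against untreated controls on a 0 (no effect) to 100 (complete control) scale.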

[10] = test system: chickweed (Stellaria media); test: Test B postemergence plant response
Method in brief: as §3

[11] = test system: canarygrass (Phalaris minor); test: Test B postemergence plant response
Method in brief: as §3

[12] = 31 g ai/ha, scale of 0 to 100 where 0 is no effect and 100 is complete control
[13] = 62 g ai/ha, scale of 0 to 100 where 0 is no effect and 100 is complete control
[14] = 125 g ai/ha, scale 0 to 100, 0 is no effect, 100 is complete control
[15] = Postemergence, 125 g ai/ha, visual injury, 0 to 100 scale (0 no effect, 100 complete control), approx. ten days
[16] = Postemergence, 500 g ai/ha, 0 to 100 scale, 0 = no effect, 100 = complete control, approx. ten days
[17] = Preemergence, 500 g ai/ha, visual injury, 0 to 100 scale (0 no effect, 100 complete control), approx. ten days
[18] = Preemergence, 125 g ai/ha, 0 to 100 scale, 0 = no effect, 100 = complete control
[19] = 31 g ai/ha, postemergence, scale 0 to 100, 0 is no effect, 100 is complete control
[20] = Postemergence, 62 g ai/ha, scale 0 (no effect) to 100 (complete control), 13 to 15 days
[21] = Postemergence, 125 g ai/ha, visual rating after 13 to 15 days, scale 0 (no effect) to 100 (complete control)
[22] = Postemergence, 250 g ai/ha, scale 0 to 100 (0 no effect, 100 complete control)
[23] = Flood, 31 g ai/ha, scale 0 to 100 (0 no effect, 100 complete control)
[24] = 62 g ai/ha, postemergence, 0 is no effect, 100 is complete control, 13 to 15 days

With `CCCCc1ncc(C(=O)C2=C(O)CCCC2=O)c(=O)n1-c1cccc(C)c1` [Compound 63] the “Plant response rating, Flood, Ducksalad” value [1] was 40, the “Plant response rating, Ducksalad” value [1, 12] was 0 and the “Plant response rating, Ducksalad” value [1, 13] was 20. The “Plant response rating, Ducksalad” value [1, 14] was 40, the “Plant response rating, Flood, Rice” value (rice (Oryza sativa)) was 10 and the “Plant response rating, Rice” value (rice (Oryza sativa); [12]) was 0. The “Plant response rating, Rice” value (rice (Oryza sativa); [13]) was 0, the “Plant response rating, Rice” value (rice (Oryza sativa); [14]) was 0 and the “Wheat plant response rating” value [2, 15] was 0. The “Plant response rating, Wheat” value [2, 16] was 0, the “Plant response rating, Wheat” value [2, 17] was 0 and the “Barnyardgrass plant response rating” value [3, 15] was 70. For the same compound, the “Plant response rating, Barnyardgrass” value [3, 16] was 90, the “Plant response rating, Barnyardgrass” value [3, 18] was 10 and the “Plant response rating, Barnyardgrass” value [3, 17] was 90. The “Foxtail, Giant plant response rating” value [4, 15] was 60, the “Plant response rating, Foxtail, Giant” value [4, 16] was 80 and the “Plant response rating, Foxtail, Giant” value [4, 18] was 50. For the same compound, the “Plant response rating, Foxtail, Giant” value [4, 17] was 80, the “Corn plant response rating” value (corn (Zea mays); [15]) was 10 and the “Plant response rating, Corn” value (corn (Zea mays); [16]) was 50. The “Plant response rating, Corn” value (corn (Zea mays); [18]) was 0, the “Plant response rating, Corn” value (corn (Zea mays); [17]) was 0 and the “Velvetleaf plant response rating” value [5, 15] was 100. For the same compound, the “Plant response rating, Velvetleaf” value [5, 16] was 100, the “Plant response rating, Velvetleaf” value [5, 18] was 80 and the “Plant response rating, Velvetleaf” value [5, 17] was 90. For the same compound, the “Morningglory plant response rating” value [6, 15] was 100, the “Plant response rating, Morningglory” value [6, 16] was 100 and the “Plant response rating, Morningglory” value [6, 18] was 10. For the same compound, the “Plant response rating, Morningglory” value [6, 17] was 70, the “Crabgrass, Large plant response rating” value [7, 15] was 80 and the “Plant response rating, Crabgrass, Large” value [7, 16] was 90. The “Plant response rating, Crabgrass, Large” value [7, 18] was 90, the “Plant response rating, Crabgrass, Large” value [7, 17] was 100 and the “Pigweed plant response rating” value [8, 15] was 90. For the same compound, the “Plant response rating, Pigweed” value [8, 16] was 100, the “Plant response rating, Pigweed” value [8, 18] was 100 and the “Plant response rating, Pigweed” value [8, 17] was 100. For the same compound, the “Plant response rating, Windgrass” value [9, 19] was 10, the “Plant response rating, Windgrass” value [9, 20] was 30 and the “Plant response rating, Windgrass” value [9, 21] was 40. The “Plant response rating, Windgrass” value [9, 22] was 60, the “Plant response rating, Chickweed” value [10, 19] was 60 and the “Plant response rating, Chickweed” value [10, 20] was 65. For the same compound, the “Plant response rating, Chickweed” value [10, 21] was 80, the “Plant response rating, Chickweed” value [10, 22] was 95 and the “Plant response rating, Canarygrass” value [11, 19] was 0. For the same compound, the “Plant response rating, Canarygrass” value [11, 20] was 0, the “Plant response rating, Canarygrass” value [11, 21] was 0 and the “Plant response rating, Canarygrass” value [11, 22] was 0.

`CCCCc1ncc(C(=O)C2=C(O)CCCC2=O)c(=O)n1-c1ccc(C)cc1` [Compound 67] was tested, and the “Plant response rating, Flood, Ducksalad” value [1] was 0, the “Plant response rating, Ducksalad” value [1, 13] was 0 and the “Plant response rating, Ducksalad” value [1, 14] was 0. For the same compound, the “Ducksalad plant response rating” value [1, 23] was 0, the “Plant response rating, Flood, Rice” value (rice (Oryza sativa)) was 0 and the “Plant response rating, Rice” value (rice (Oryza sativa); [13]) was 0. For the same compound, the “Plant response rating, Rice” value (rice (Oryza sativa); [14]) was 0, the “Rice plant response rating” value (rice (Oryza sativa); [23]) was 0 and the “Wheat plant response rating” value [2, 15] was 20. For the same compound, the “Plant response rating, Wheat” value [2, 16] was 30, the “Plant response rating, Wheat” value [2, 18] was 0 and the “Plant response rating, Wheat” value [2, 17] was 0. The “Barnyardgrass plant response rating” value [3, 15] was 70, the “Plant response rating, Barnyardgrass” value [3, 16] was 90 and the “Plant response rating, Barnyardgrass” value [3, 18] was 0. The “Plant response rating, Barnyardgrass” value [3, 17] was 40, the “Foxtail, Giant plant response rating” value [4, 15] was 30 and the “Plant response rating, Foxtail, Giant” value [4, 16] was 60. For the same compound, the “Plant response rating, Foxtail, Giant” value [4, 17] was 50, the “Plant response rating, Corn” value (corn (Zea mays); [16]) was 10 and the “Plant response rating, Corn” value (corn (Zea mays); [18]) was 0. The “Plant response rating, Corn” value (corn (Zea mays); [17]) was 0, the “Velvetleaf plant response rating” value [5, 15] was 100 and the “Plant response rating, Velvetleaf” value [5, 16] was 100. The “Plant response rating, Velvetleaf” value [5, 18] was 70, the “Plant response rating, Velvetleaf” value [5, 17] was 80 and the “Morningglory plant response rating” value [6, 15] was 100. For the same compound, the “Plant response rating, Morningglory” value [6, 16] was 100, the “Plant response rating, Morningglory” value [6, 18] was 30 and the “Plant response rating, Morningglory” value [6, 17] was 50. The “Crabgrass, Large plant response rating” value [7, 15] was 60, the “Plant response rating, Crabgrass, Large” value [7, 16] was 90 and the “Plant response rating, Crabgrass, Large” value [7, 18] was 30. The “Plant response rating, Crabgrass, Large” value [7, 17] was 90, the “Pigweed plant response rating” value [8, 15] was 100 and the “Plant response rating, Pigweed” value [8, 16] was 100. The “Plant response rating, Pigweed” value [8, 18] was 90, the “Plant response rating, Pigweed” value [8, 17] was 90 and the “Plant response rating, Windgrass” value [9, 19] was 0. For the same compound, the “Windgrass plant response rating (0 to 100 scale)” value [9, 24] was 0, the “Plant response rating, Windgrass” value [9, 21] was 5 and the “Plant response rating, Windgrass” value [9, 22] was 5. For the same compound, the “Plant response rating, Chickweed” value [10, 19] was 90, the “Chickweed plant response rating (0 to 100 scale)” value [10, 24] was 95 and the “Plant response rating, Chickweed” value [10, 21] was 95. For the same compound, the “Plant response rating, Chickweed” value [10, 22] was 100, the “Plant response rating, Canarygrass” value [11, 19] was 0 and the “Canarygrass plant response rating (0 to 100 scale)” value [11, 24] was 0. For the same compound, the “Plant response rating, Canarygrass” value [11, 21] was 0 and the “Plant response rating, Canarygrass” value [11, 22] was 5.

Source: US8952024B2, “Herbicidal pyrimidone derivatives” (E I du Pont de Nemours and Company, priority 2009, dated 2015)
